Measurements published in patent publication US6525245B1, “Method for identifying components involved in signal transduction pathways in higher plants” (The Board of Regents of the University of Nebraska, priority 1999, dated 2003).

Columns and labels:
AOX = conditions: cited from earlier work; for effect on AOX transcription / effect on branched chain amino acid biosynthesis: Aubert et al. 1997
AOX1a promoter [1] = assay: Luciferase expression in excised leaves of AOX1a promoter::luciferase transgenic lines, exposure to film; type: cell-based, Arabidopsis thaliana; conditions: for luciferase response to application: lines PZB-ALN 26 and 47
Procedure: Initial screening of the F1 plants was done by spraying excised leaves with 10 uM AA (FIG. 4A). The leaves were incubated for 4 hr in the light, then sprayed with luciferin, and exposed to autoradiographic film. […] Several pZB-ALN lines were used for imaging experiments employing a Hamamatsu photon-counting, CCD camera system (model C2400-75H).

Arabidopsis plants = assay: Survival of Arabidopsis plants after treatment; type: in vivo
Procedure: In order for a screen involving application of antimycin A or sulfometuron methyl to succeed, plants must survive the screening procedure. […] Plants from line pZB-ALN 8 were used to produce the dose response curve shown in FIG. 6 were transferred to fresh growth plates (without antimycin A) after 36 h of antimycin A treatment. […] These plants remained green with healthy, expanded first true leaves and healthy roots and produced a normal-looking second set of true leaves.

AOX1a promoter [2] = assay: Dose-response of AOXP-driven luciferase expression in seedlings, photon-counting CCD camera; type: in vivo, Arabidopsis thaliana; conditions: line pZB-ALN 8
Procedure: Seeds from these lines were sterilized and germinated on filter discs on standard growth agar in six-well plates and then grown at 20° C. and 66 uE of continuous light for 7 days (to eliminate the possibility of circadian rhythm effects). A Hamamatsu CCD camera system was used to quantify the levels of AOXP-driven luciferase expression. […] Plants were imaged immediately following transfer to induction plates, then returned to the growth chamber under 66 uE continuous light and 20° C.

COc1nc(C)nc(NC(=O)NS(=O)(=O)c2ccccc2Cl)n1 [chlorsulfuron]
effect on AOX transcription (AOX): increase in AOX transcription | effect on branched chain amino acid biosynthesis (AOX): inhibit branched chain amino acid biosynthesis

O=C(O)CC(O)(CC(=O)O)C(=O)O [citrate]
luciferase response to application (AOX1a promoter [1]): lower, but definite response | AOX mRNA accumulation (AOX; increase in amount of citrate in tobacco cells): accumulate

O=C(O)c1ccccc1O [salicylic acid]
luciferase response to application (AOX1a promoter [1]): lower, but definite response | AOX transcript accumulation (AOX; Sauromatum guttatum and tobacco): accumulate

COC(=O)c1ccccc1S(=O)(=O)NC(=O)Nc1nc(C)cc(C)n1 [sulfometuron methyl]
luciferase expression (AOX1a promoter [1]; 5 nM, 24 h following treatment, some of the lines): higher luciferase expression | survival of plants after treatment (Arabidopsis plants; wild-type Arabidopsis plants sprayed with 5 uM or 5 nM): survive treatment | effect on AOX transcription (AOX): increase in AOX transcription | effect on branched chain amino acid biosynthesis (AOX): inhibit branched chain amino acid biosynthesis

antimycin A
peak induction of luciferase expression over the negative control (AOX1a promoter [2]; 1.0 mM or 100 uM): about 17 fold | time after transfer until which peak induction level is kept (AOX1a promoter [2]; 1.0 mM or 100 uM): at least 10 h | time of peak induction after application (AOX1a promoter [2]; 1.0 mM or 100 uM): about 6 h | lowest concentration giving measurable induction (AOX1a promoter [2]): 0.1 µM | luciferase expression versus untreated control leaves (AOX1a promoter [1]; 10 uM, 4 h after treatment, excised leaves, pZB-ALN and pZP-ALE lines, qualitative): higher luciferase expression | survival of plants after treatment (Arabidopsis plants; line pZB-ALN 8, 0.1, 1.0, 10, 100 and 1000 uM, 36 h treatment, six days after treatment): survived without any apparent developmental alterations | effect on AOX protein and transcript (AOX; petunia cells, tobacco, Hensenula anomala): increases in AOX protein and transcript
